For data set [1], the target named is T1, fMet-Leu-Phe receptor (Homo sapiens, UniProt P21462).
T1 sequence (P21462 whole entry): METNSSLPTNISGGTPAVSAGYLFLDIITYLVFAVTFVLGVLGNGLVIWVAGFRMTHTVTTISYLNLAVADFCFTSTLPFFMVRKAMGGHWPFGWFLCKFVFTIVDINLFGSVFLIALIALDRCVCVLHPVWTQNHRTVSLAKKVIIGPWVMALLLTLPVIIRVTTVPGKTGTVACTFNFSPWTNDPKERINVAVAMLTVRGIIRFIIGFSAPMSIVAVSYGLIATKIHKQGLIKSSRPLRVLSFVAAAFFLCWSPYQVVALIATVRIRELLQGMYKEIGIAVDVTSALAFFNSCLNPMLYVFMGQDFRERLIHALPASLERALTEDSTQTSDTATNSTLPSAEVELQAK
In words: Antagonist activity against human FPR1 expressed in human HL-60 cells assessed as inhibition of fMLF-induced calcium mobilization preincubated for 30 mins followed by fMLF addition and measured every 5s for 240s by Fluo4AM dye based scanning fluorimetric analysis. It counts as functional, cell-based. A general note: Calcium assays in cells follow changes in intracellular calcium, usually with a dye or a luminescent sensor.

The target of data set [2] is T2, N-formyl peptide receptor 2 (Homo sapiens) (UniProt P25090).
T2 sequence (whole entry): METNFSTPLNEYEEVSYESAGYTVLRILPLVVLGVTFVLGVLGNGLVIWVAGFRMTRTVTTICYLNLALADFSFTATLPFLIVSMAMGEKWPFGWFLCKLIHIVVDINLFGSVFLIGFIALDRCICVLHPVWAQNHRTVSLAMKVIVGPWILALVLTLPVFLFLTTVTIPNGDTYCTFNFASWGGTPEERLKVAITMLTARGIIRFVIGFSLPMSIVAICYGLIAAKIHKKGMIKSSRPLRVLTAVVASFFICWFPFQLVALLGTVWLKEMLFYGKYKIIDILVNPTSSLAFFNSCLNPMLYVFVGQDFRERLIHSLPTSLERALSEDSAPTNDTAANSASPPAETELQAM
In words: Antagonist activity against human FPR2 expressed in human HL-60 cells assessed as inhibition of WKYMVM-induced calcium mobilization preincubated for 10 mins followed by WKYMVM addition and measured every 5s for 240s by Fluo4AM dye based scanning fluorimetric analysis. The format is functional, cell-based. The conditions noted are these: time 840.0 sec.

Data set [3] in a line: Metabolic stability of the compound in rat liver microsomes assessed as parent compound remaining at 10 uM preincubated for 10 mins followed by NADPH addition and measured after 30 mins by LC-MS analysis. It counts as ADME, Microsome. The conditions noted are these: time 40 min, read-out: Stability. On the technique in general: Microsomes from liver hold many membrane-bound enzymes, among them those of drug oxidation.

Data set [4] concerns the target T1, fMet-Leu-Phe receptor. Description: Antagonist activity against human FPR1 expressed in human HL-60 cells assessed as inhibition of fMLF-induced calcium mobilization preincubated for 10 mins followed by fMLF addition and measured every 5s for 240s by Fluo4AM dye based scanning fluorimetric analysis. It counts as functional, cell-based.
The subject of data set [5] is NCI-N87. In words: Induction of apoptosis in human NCI-N87 cells assessed as viable cells at 5 uM measured after 48 hrs in presence of FPR1 antagonist, fMLF by Muse Annexin V cytofluorimetric analysis (reference value: […]%). The conditions noted are these: read-out: Activity. The format is functional.
For data set [6], the system named is NCI-N87. In words: Induction of apoptosis in human NCI-N87 cells assessed as viable cells at 5 uM measured after 48 hrs by Muse Annexin V cytofluorimetric analysis (reference value: 69.9%). As to conditions: read-out: Activity. It counts as functional.
The test system of data set [7] is AGS. In words: Induction of apoptosis in human AGS cells assessed as viable cells at 5 uM measured after 48 hrs by Muse Annexin V cytofluorimetric analysis (reference value: 85.9%). As to conditions: read-out: Activity. It counts as functional.
The test system of data set [8] is AGS. Description: Induction of apoptosis in human AGS cells assessed as viable cells at 5 uM measured after 48 hrs in presence of FPR1 antagonist, fMLF by Muse Annexin V cytofluorimetric analysis (reference value: 87.1%). The format is functional. As to conditions: read-out: Activity.

Each structure is given as a SMILES string. pIC50: −log10 of the molar value. Activity calls are given as the source filed them. The rule behind the calls is not given here.

Results on 15 molecules are retold here after ChEMBL document CHEMBL5335795, “Development of potent isoflavone-based formyl peptide receptor 1 (FPR1) antagonists and their effects in gastric cancer cell models” (Eur J Med Chem, 2023).

Take `COc1ccccc1-c1c(C)oc2cc(OC(=O)c3ccco3)ccc2c1=O`: the pIC50 on fMet-Leu-Phe receptor [1] is 5.72.

In the case of `CCCc1cc2c(=O)c(-c3ccccc3OC)c(C)oc2cc1OC(=O)N(C)C`, the inhibition result in data set [2] was “inactive”. `CCc1cc2c(=O)c(-c3nc4ccccc4n3C)c(C)oc2cc1OC(C)=O`: the pIC50 on fMet-Leu-Phe receptor [1] was 5.85.

In the case of `CCCCCCc1cc2c(=O)c(-c3ccccc3OC)c(C(F)(F)F)oc2cc1OC(C)=O`, the remaining at 0.5 h, 10 µM in data set [3] came out at 0%. In the case of `Cc1oc2cc(OC(=O)c3ccco3)ccc2c(=O)c1-c1nc2ccccc2n1C`, on fMet-Leu-Phe receptor [1], the pIC50 was 5.51. As for `CCCCCCC(=O)Oc1cc2oc(C)c(-c3ccccc3OC)c(=O)c2cc1C`, the remaining at 0.5 h, 10 µM in data set [3] amounted to 0%. Take `CCCCCCC(=O)Oc1cc2oc(C)c(-c3cccc(OC)c3)c(=O)c2cc1C`: the inhibition entry in data set [2] was “inactive”. In the case of `CCCCCCc1cc2c(=O)c(-c3nc4ccccc4n3C)c(C)oc2cc1OC(C)=O`, the pIC50 at fMet-Leu-Phe receptor [1] is 6.51.

Take `CCCCCCc1cc2c(=O)c(-c3cccc(OC)c3)c(C(F)(F)F)oc2cc1OC(C)=O`: the inhibition entry in data set [2] was “inactive”. As to `CCCCCCc1cc2c(=O)c(-c3ccccc3OC)c(C)oc2cc1OC(=O)N(C)C`, the inhibition entry in data set [2] is “inactive”. The IC50 entry at fMet-Leu-Phe receptor [4] was “Not Active”. For the molecule `CCCc1cc2c(=O)c(-c3cccc(OC)c3)c(C)oc2cc1OC(C)=O`, the inhibition entry in data set [2] is “inactive”.

On to `CCCCCc1cc2c(=O)c(-c3ccccc3OC)c(C)oc2cc1OC(C)=O`, for which the inhibition entry in data set [2] was “inactive”.

Take `COc1ccccc1-c1c(C(F)(F)F)oc2cc(OC(=O)c3ccco3)ccc2c1=O`: the pIC50 at fMet-Leu-Phe receptor [1] is 6.36. For the molecule `CCCCCCc1cc2c(=O)c(-c3ccccc3OC)c(C)oc2cc1OC(C)=O`, in data set [3], the remaining at 0.5 h, 10 µM was 0%. Also, the viability at 5 µM in the data set with NCI-N87 [5] was determined as 45.5%; in the data set with NCI-N87 [6], 45.1%; in the data set on AGS [7], 52%; with AGS [8] it was 46.9%.

For the molecule `CCCCc1cc2c(=O)c(-c3ccccc3OC)c(C)oc2cc1OC(C)=O`, in data set [2], the inhibition entry is “inactive”.

One may read the pIC50 as the IC50 on a negative log10 scale, so that one unit is a factor of ten.
